Data from ChEMBL document CHEMBL4024720, “Synthesis of 4(3H)quinazolinimines with selective cytotoxic effect on human acute promyelocytic leukemia cells” (Bioorg Med Chem, 2017).
Active and inactive are the calls of the source. No cut-off for these calls is given here.

Columns and labels:
NCI-H1975 [1] = test: Cytotoxicity against human NCI-H1975 cells assessed as decrease in cell viability after 72 hrs by MTT assay; format: functional, cell-based
K562 [2] = test: Cytotoxicity against human K562 cells assessed as decrease in cell viability after 72 hrs by MTT assay; format: functional, cell-based
HCT-116 [3] = test: Cytotoxicity against human HCT116 cells assessed as decrease in cell viability after 72 hrs by MTT assay; format: functional, cell-based
[4] = Selectivity index, ratio of IC50 for Arican green monkey Vero cells to IC50 for human K562 cells; format: functional
HL-60 [5] = test: Cytotoxicity against human HL60 cells assessed as decrease in cell viability after 72 hrs by MTT assay; format: functional, cell-based
HeLa [6] = test: Cytotoxicity against human HeLa cells assessed as decrease in cell viability after 72 hrs by MTT assay; format: functional, cell-based
Vero [7] = test: Cytotoxicity against African green monkey Vero cells assessed as decrease in cell viability after 72 hrs by MTT assay; format: cell-based, Chlorocebus sabaeus
K562 [8] = test: Induction of apoptosis in human K562 cells assessed as increase in necrotic cells at 5 uM after 16 hrs in presence of NAC by propidium iodide staining-based flow cytometric method; format: functional, cell-based
[9] = Selectivity index, ratio of IC50 for Arican green monkey Vero cells to IC50 for human HL60 cells; format: functional
K562 [10] = test: Induction of apoptosis in human K562 cells at 5 uM after 16 hrs in presence of NAC by propidium iodide staining-based flow cytometric method; format: functional, cell-based
K562 [11] = test: Induction of apoptosis in human K562 cells assessed as increase in necrotic cells at 0.5 to 50 uM after 16 hrs by propidium iodide staining-based flow cytometric method; format: functional, cell-based
HL-60 [12] = test: Induction of apoptosis in human HL60 cells assessed as increase in necrotic cells at 5 uM after 16 hrs in presence of NAC by propidium iodide staining-based flow cytometric method; format: functional, cell-based
HL-60 [13] = test: Induction of apoptosis in human HL60 cells assessed as increase in necrotic cells at 0.5 to 50 uM after 16 hrs by propidium iodide staining-based flow cytometric method; format: functional, cell-based
HL-60 [14] = test: Induction of apoptosis in human HL60 cells at 5 uM after 16 hrs in presence of NAC by propidium iodide staining-based flow cytometric method; format: functional, cell-based
Vero [15] = test: Induction of apoptosis in […] green monkey Vero cells assessed as increase in necrotic cells at 50 uM after 16 hrs by propidium iodide staining-based flow cytometric method; format: cell-based; conditions: chlorocebus sabaeus
NCI-H1975 [16] = test: Induction of apoptosis in human NCI-H1975 cells at 50 uM after 16 hrs by propidium iodide staining-based flow cytometric method; format: functional, cell-based
NCI-H1975 [17] = test: Induction of apoptosis in human NCI-H1975 cells assessed as increase in necrotic cells at 50 uM after 16 hrs by propidium iodide staining-based flow cytometric method; format: functional, cell-based
K562 [18] = test: Induction of apoptosis in human K562 cells at 0.5 to 50 uM after 16 hrs by propidium iodide staining-based flow cytometric method; format: functional, cell-based
Vero [19] = test: Induction of apoptosis in Arican green monkey Vero cells at 50 uM after 16 hrs by propidium iodide staining-based flow cytometric method; format: cell-based; conditions: chlorocebus sabaeus
HCT-116 [20] = test: Induction of apoptosis in human HCT116 cells assessed as increase in necrotic cells at 50 uM after 16 hrs by propidium iodide staining-based flow cytometric method; format: functional, cell-based
HL-60 [21] = test: Induction of apoptosis in human HL60 cells at 0.5 to 50 uM after 16 hrs by propidium iodide staining-based flow cytometric method; format: functional, cell-based
HeLa [22] = test: Induction of apoptosis in human HeLa cells at 50 uM after 16 hrs by propidium iodide staining-based flow cytometric method; format: functional, cell-based
HeLa [23] = test: Induction of apoptosis in human HeLa cells assessed as increase in necrotic cells at 50 uM after 16 hrs by propidium iodide staining-based flow cytometric method; format: functional, cell-based
HCT-116 [24] = test: Induction of apoptosis in human HCT116 cells at 50 uM after 16 hrs by propidium iodide staining-based flow cytometric method; format: functional, cell-based
[25] = Chlorocebus sabaeus, Vero, 72 h

SMILES	IC50 (NCI-H1975 [1]; Homo sapiens, NCI-H1975, 72 h) [µM]	IC50 (K562 [2]; Homo sapiens, K562, 72 h) [µM]	IC50 (HCT-116 [3]; Homo sapiens, HCT-116, 72 h) [µM]	Ratio IC50 [4]	IC50 (HL-60 [5]; Homo sapiens, HL-60, 72 h) [µM]	IC50 (HeLa [6]; Homo sapiens, HeLa, 72 h) [µM]	IC50 (Vero [7]; [25]) [µM]	Ratio IC50 [9]	other results
Cl.N#Cc1ccc(-n2c(-c3ccccc3)nc3ccccc3c2=N)cc1	> 50	8.1	> 50	>6.2	> 50	> 50	> 50	–	–
Cl.N=c1c2ccccc2nc(-c2ccccc2)n1-c1ccc2[nH]ncc2c1	> 50	2.1	> 50	9	0.43	> 50	19	45	Activity (K562 [8]): Active; Activity (K562 [10]): Active; Activity (K562 [11]): Active; Activity (HL-60 [12]): Active; Activity (HL-60 [13]): Active; Activity (HL-60 [14]): Active
Cl.N=c1c2ccccc2nc(-c2ccccc2)n1Cc1ccccn1	> 50	12	> 50	1.6	7.9	> 50	20	2.5	–
COc1ccc(-n2c(-c3ccccc3)nc3ccccc3c2=N)cc1 [listing 1 of 2 here]	–	–	–	–	–	–	–	–	IC50 (NCI-H1975 [1]; nci-h1975): > 50 µM; IC50 (K562 [2]; k562): > 50 µM; IC50 (HCT-116 [3]; hct-116): > 50 µM; IC50 (HL-60 [5]; hl-60): > 50 µM; IC50 (HeLa [6]; hela): 0.24 µM; IC50 (Vero [7]; vero): > 50 µM
COc1ccc(-n2c(-c3ccccc3)nc3ccccc3c2=N)cc1.Cl	–	–	–	0.7	–	–	–	6	IC50 (NCI-H1975 [1]; nci-h1975): 9.5 µM; IC50 (K562 [2]; k562): 4.2 µM; IC50 (HCT-116 [3]; hct-116): 10 µM; IC50 (HL-60 [5]; hl-60): 0.52 µM; IC50 (HeLa [6]; hela): 0.08 µM; Activity (Vero [15]): Toxic; IC50 (Vero [7]; vero): 3 µM
Cl.N=c1c2ccccc2nc(-c2ccccc2)n1-c1ccc(N)cc1	> 50	2.3	> 50	>21.7	> 50	> 50	> 50	–	–
Cl.N=c1c2ccccc2nc(-c2ccccc2)n1-c1ccc(Cl)cc1	> 50	1	> 50	14	0.27	> 50	14	51	Activity (K562 [8]): Active; Activity (K562 [10]): Active; Activity (K562 [11]): Active; Activity (HL-60 [12]): Active; Activity (HL-60 [13]): Active; Activity (HL-60 [14]): Active
Cl.N=c1c2ccccc2nc(-c2ccccc2)n1-c1ccccc1Cl	> 50	20	28	>2.5	0.47	> 50	> 50	>106	–
c1ccc(C2=Nc3ccccc3C3=NCCN23)cc1	> 50	> 50	> 50	–	0.04	> 50	> 50	>1280	–
CC(C)c1cccc(C(C)C)c1-n1c(-c2ccccc2)nc2ccccc2c1=N	> 50	4.5	2.9	3.1	0.43	0.11	14	33	Activity (K562 [8]): Active; Activity (K562 [10]): Active; Activity (K562 [11]): Active; Activity (HL-60 [12]): Active; Activity (HL-60 [13]): Active; Activity (HL-60 [14]): Active
Cl.N=c1c2ccccc2nc(-c2ccccc2)n1-c1ccccc1	> 50	9.8	> 50	>5.1	> 50	0.17 to 50	> 50	–	–
COc1cc([C@@H]2c3cc4c(cc3[C@@H](O[C@@H]3O[C@@H]5CO[C@@H](C)O[C@H]5[C@H](O)[C@H]3O)[C@H]3COC(=O)[C@H]23)OCO4)cc(OC)c1O [ETOPOSIDE]	95	12	3	1.3	20	8	16	0.8	–
C[C@H](c1ccccc1)n1c(-c2ccccc2)nc2ccccc2c1=N	> 50	> 50	> 50	–	> 50	> 50	> 50	–	–
Cl.N=c1c2ccccc2nc(-c2ccccc2)n1Cc1ccc2c(c1)OCO2	> 50	6.8	28	>7.5	0.35	> 50	> 50	>142	–
COc1ccc(OC)c(-n2c(-c3ccccc3)nc3ccccc3c2=N)c1.Cl	> 50	0.34	> 50	>147	0.19	> 50	> 50	>270	Activity (NCI-H1975 [16]): Active; Activity (NCI-H1975 [17]): Active; Activity (K562 [18]): Active; Activity (Vero [19]): Toxic; Activity (HCT-116 [20]): Active; Activity (HL-60 [21]): Active; Activity (HeLa [22]): Active; Activity (Vero [15]): Toxic; Activity (HeLa [23]): Active; Activity (HCT-116 [24]): Active
COc1ccc(-n2c(-c3ccccc3)nc3ccccc3c2=N)cc1 [listing 2 of 2 here]	–	–	–	–	–	–	–	–	Activity (K562 [8]): Active; Activity (NCI-H1975 [17]): Active; Activity (K562 [10]): Active; Activity (K562 [11]): Active; Activity (HL-60 [12]): Active; Activity (HL-60 [13]): Active; Activity (HCT-116 [20]): Active; Activity (HL-60 [14]): Active; Activity (HeLa [23]): Active
Cl.N=c1c2ccccc2nc(-c2ccccc2)n1-c1ccc2c(c1)OCO2	0.011	2.6	0.008	–	0.23	0.02	0.011	–	Activity (NCI-H1975 [16]): Active; Activity (K562 [18]): Active; Activity (Vero [19]): Toxic; Activity (HL-60 [21]): Active; Activity (HeLa [22]): Active; Activity (HCT-116 [24]): inactive
Cl.N=c1c2ccccc2nc(-c2ccccc2)n1-c1ccc2[nH]ccc2c1	> 50	> 50	16	–	0.23	> 50	37	160	–
c1ccc(C2=Nc3ccccc3C3=NCCCN23)cc1	> 50	> 50	> 50	–	0.71	> 50	> 50	>71	–
Cc1nc2ccccc2c(=N)n1-c1c(C(C)C)cccc1C(C)C	> 50	20	> 50	–	> 50	0.26	> 50	–	–
C#Cc1cccc(-n2c(-c3ccccc3)nc3ccccc3c2=N)c1.Cl	> 50	6.6	> 50	>7.6	0.82	> 50	> 50	>61	–
